Our source for the activity and Km values is ChEMBL document CHEMBL2074469, “Analysis of methotrexate and folate transport by multidrug resistance protein 4 (ABCC4): MRP4 is a component of the methotrexate efflux system” (Cancer Res, 2002).

Common to all, as to format: functional, cell membranes, Membrane vesicle
Series [1] has as its target T1, MRP4 (ATP-binding cassette sub-family C member 4) (Homo sapiens, UniProt O15439).
T1 sequence (O15439 whole entry): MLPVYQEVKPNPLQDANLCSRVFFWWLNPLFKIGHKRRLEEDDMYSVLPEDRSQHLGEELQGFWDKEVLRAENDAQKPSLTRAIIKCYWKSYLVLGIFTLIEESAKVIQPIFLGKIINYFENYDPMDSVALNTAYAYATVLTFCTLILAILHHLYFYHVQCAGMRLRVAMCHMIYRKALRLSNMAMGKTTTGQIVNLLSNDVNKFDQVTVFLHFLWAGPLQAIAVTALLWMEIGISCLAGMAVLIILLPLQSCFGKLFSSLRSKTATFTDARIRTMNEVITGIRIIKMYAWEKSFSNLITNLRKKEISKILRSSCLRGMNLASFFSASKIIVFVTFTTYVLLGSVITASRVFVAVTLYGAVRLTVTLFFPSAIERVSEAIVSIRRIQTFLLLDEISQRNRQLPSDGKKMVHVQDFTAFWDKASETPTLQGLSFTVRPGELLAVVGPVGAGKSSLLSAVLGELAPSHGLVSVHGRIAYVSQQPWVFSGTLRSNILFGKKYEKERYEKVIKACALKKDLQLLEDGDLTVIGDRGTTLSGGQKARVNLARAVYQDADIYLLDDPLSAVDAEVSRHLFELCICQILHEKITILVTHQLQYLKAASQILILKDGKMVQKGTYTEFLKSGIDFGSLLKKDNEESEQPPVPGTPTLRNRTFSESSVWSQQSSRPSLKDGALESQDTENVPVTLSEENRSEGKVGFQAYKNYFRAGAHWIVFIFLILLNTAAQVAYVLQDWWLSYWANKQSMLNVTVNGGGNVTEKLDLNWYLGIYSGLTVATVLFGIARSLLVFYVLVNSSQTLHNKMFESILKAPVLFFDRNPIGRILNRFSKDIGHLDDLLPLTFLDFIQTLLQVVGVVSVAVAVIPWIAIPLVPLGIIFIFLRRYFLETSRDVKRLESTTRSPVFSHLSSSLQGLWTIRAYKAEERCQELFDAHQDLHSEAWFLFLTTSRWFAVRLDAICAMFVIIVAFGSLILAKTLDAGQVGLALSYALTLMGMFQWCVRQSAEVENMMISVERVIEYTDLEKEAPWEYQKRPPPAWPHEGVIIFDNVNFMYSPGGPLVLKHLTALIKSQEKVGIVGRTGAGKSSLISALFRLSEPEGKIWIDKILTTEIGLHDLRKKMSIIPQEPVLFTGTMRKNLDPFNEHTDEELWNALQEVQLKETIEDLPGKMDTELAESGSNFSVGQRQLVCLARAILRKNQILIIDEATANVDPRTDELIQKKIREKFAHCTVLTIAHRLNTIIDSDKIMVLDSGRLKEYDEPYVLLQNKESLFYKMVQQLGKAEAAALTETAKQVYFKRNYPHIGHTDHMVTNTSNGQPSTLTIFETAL
Put plainly: TP_TRANSPORTER: inhibition of MTX uptake (MTX: 20 uM, cGMP: 300 uM) in membrane vesicles from MRP4-expressing Sf9 cells. On the set-up: scale not given: the % may be the effect or the level left. The settings on record: probe MTX (20 uM), read-out: Activity.

In series [2] the target is T1, MRP4 (ATP-binding cassette sub-family C member 4). Put plainly: TP_TRANSPORTER: inhibition of MTX uptake (MTX: 20 uM, Folic acid: 300 uM) in membrane vesicles from MRP4-expressing Sf9 cells. On the set-up: scale not given: the % may be the effect or the level left. The settings on record: probe MTX (20 uM), read-out: Activity.
For series [3] the target is unchanged. Description: TP_TRANSPORTER: inhibition of MTX uptake (MTX: 20 uM, E217betaG: 30 uM) in membrane vesicles from MRP4-expressing Sf9 cells. The settings on record: probe MTX (20 uM), read-out: Activity. On the set-up: scale not given: the % may be the effect or the level left.
The target is the same in series [4]. Description: TP_TRANSPORTER: inhibition of MTX uptake (MTX: 20 uM, Trequinsin: 10 uM) in membrane vesicles from MRP4-expressing Sf9 cells. On the set-up: scale not given: the % may be the effect or the level left. The following applies: probe MTX (20 uM), read-out: Activity.
The target is the same in series [5]. Put plainly: TP_TRANSPORTER: inhibition of MTX uptake (MTX: 20 uM, PSC-833: 10 uM) in membrane vesicles from MRP4-expressing Sf9 cells. On the set-up: scale not given: the % may be the effect or the level left. The settings on record: probe MTX (20 uM), read-out: Activity.
Series [6] shares this target. Description: TP_TRANSPORTER: inhibition of MTX uptake (MTX: 20 uM, Leucovorin: 300 uM) in membrane vesicles from MRP4-expressing Sf9 cells. On the set-up: scale not given: the % may be the effect or the level left. The settings on record: probe MTX (20 uM), read-out: Activity.
Series [7] shares this target. Put plainly: TP_TRANSPORTER: inhibition of MTX uptake (MTX: 20 uM, Zaprinast: 10 uM) in membrane vesicles from MRP4-expressing Sf9 cells. On the set-up: scale not given: the % may be the effect or the level left. The settings on record: probe MTX (20 uM), read-out: Activity.
For series [8] the target is unchanged. Put plainly: TP_TRANSPORTER: inhibition of MTX uptake (MTX: 20 uM, Probenecid: 300 uM) in membrane vesicles from MRP4-expressing Sf9 cells. The following applies: probe MTX (20 uM), read-out: Activity. On the set-up: scale not given: the % may be the effect or the level left.
The target is the same in series [9]. Put plainly: TP_TRANSPORTER: inhibition of MTX uptake (MTX: 20 uM, Sulfinpyrazone: 300 uM) in membrane vesicles from MRP4-expressing Sf9 cells. On the set-up: scale not given: the % may be the effect or the level left. The settings on record: probe MTX (20 uM), read-out: Activity.
Series [10] has the same target. Put plainly: TP_TRANSPORTER: inhibition of MTX uptake (MTX: 20 uM, Verapamil: 30 uM) in membrane vesicles from MRP4-expressing Sf9 cells. On the set-up: scale not given: the % may be the effect or the level left. The following applies: probe MTX (20 uM), read-out: Activity.
For series [11] the target is unchanged. Description: TP_TRANSPORTER: inhibition of MTX uptake (MTX: 20 uM, Sildenafil: 10 uM) in membrane vesicles from MRP4-expressing Sf9 cells. On the set-up: scale not given: the % may be the effect or the level left. The following applies: probe MTX (20 uM), read-out: Activity.
The target is the same in series [12]. Description: TP_TRANSPORTER: inhibition of MTX uptake (MTX: 20 uM, MK571: 1 uM) in membrane vesicles from MRP4-expressing Sf9 cells. On the set-up: scale not given: the % may be the effect or the level left. The settings on record: probe MTX (20 uM), read-out: Activity.
Substrate in series [13]: Nc1nc2c(c(=O)[nH]1)N(C=O)C(CNc1ccc(C(=O)N[C@@H](CCC(=O)O)C(=O)O)cc1)CN2
Description: (§1) TP_TRANSPORTER: uptake in membrane vesicles from MRP4-expressing Sf9 cells.

Substrate in series [14]: Nc1nc2ncc(CNc3ccc(C(=O)N[C@@H](CCC(=O)O)C(=O)O)cc3)nc2c(=O)[nH]1
The description is as §1.

Turning to `Nc1nc2c(ncn2[C@@H]2O[C@@H]3COP(=O)(O)O[C@H]3[C@H]2O)c(=O)[nH]1`, the activity at 300 µM in series [1] is 46.5%.

As to `Nc1nc2ncc(CNc3ccc(C(=O)N[C@@H](CCC(=O)O)C(=O)O)cc3)nc2c(=O)[nH]1` [FOLIC ACID], in series [2], the activity at 300 µM was determined as 45%.

For the molecule `C[C@]12CC[C@@H]3c4ccc(O)cc4CC[C@H]3[C@@H]1CC[C@@H]2O[C@@H]1O[C@H](C(=O)O)[C@@H](O)[C@H](O)[C@H]1O` [ESTRADIOL 17B GLUCURONIDE], the activity at 30 µM in series [3] was 39.9%.

`COc1cc2c(cc1OC)-c1c/c(=N\c3c(C)cc(C)cc3C)n(C)c(=O)n1CC2` [TREQUINSIN]: the activity at 10 µM in series [4] was 25.7%.

As to `C/C=C/C[C@@H](C)C(=O)[C@H]1C(=O)N[C@@H](C(C)C)C(=O)N(C)CC(=O)N(C)[C@@H](CC(C)C)C(=O)N[C@@H](C(C)C)C(=O)N(C)[C@@H](CC(C)C)C(=O)N[C@@H](C)C(=O)N[C@H](C)C(=O)N(C)[C@@H](CC(C)C)C(=O)N(C)[C@@H](CC(C)C)C(=O)N(C)[C@@H](C(C)C)C(=O)N1C` [VALSPODAR], the activity at 10 µM in series [5] amounted to 56.4%.

As for `Nc1nc2c(c(=O)[nH]1)N(C=O)C(CNc1ccc(C(=O)N[C@@H](CCC(=O)O)C(=O)O)cc1)CN2` (some centres undefined) [LEUCOVORIN], in [6], the activity at 300 µM came out at 71.2%.

In the case of `CCCOc1ccccc1-c1nc2nn[nH]c2c(=O)[nH]1` [ZAPRINAST], the activity at 10 µM in series [7] stood at 34.1%.

Regarding `CCCN(CCC)S(=O)(=O)c1ccc(C(=O)O)cc1` [PROBENECID], the activity at 300 µM in series [8] worked out at 49.4%.

Take `O=C1C(CC[S+]([O-])c2ccccc2)C(=O)N(c2ccccc2)N1c1ccccc1` (centres undefined) [SULFINPYRAZONE]: the activity at 300 µM in [9] amounted to 23.3%.

In the case of `COc1ccc(CCN(C)CCCC(C#N)(c2ccc(OC)c(OC)c2)C(C)C)cc1OC` (centres undefined), the activity at 30 µM in series [10] is 53.8%.

As for `CCCc1nn(C)c2c(=O)[nH]c(-c3cc(S(=O)(=O)N4CCN(C)CC4)ccc3OCC)nc12`, the activity at 10 µM in series [11] is 46%.

Regarding `CN(C)C(=O)CCSC(SCCC(=O)O)c1cccc(/C=C/c2ccc3ccc(Cl)cc3n2)c1` (centres undefined) [MK-571], the activity at 1 µM in [12] was 56.4%.

B1: ATP-binding cassette sub-family C member 4 (Homo sapiens) (protein)
chain: MLPVYQEVKPNPLQDANLCSRVFFWWLNPLFKIGHKRRLEEDDMYSVLPEDRSQHLGEELQGFWDKEVLRAENDAQKPSLTRAIIKCYWKSYLVLGIFTLIEESAKVIQPIFLGKIINYFENYDPMDSVALNTAYAYATVLTFCTLILAILHHLYFYHVQCAGMRLRVAMCHMIYRKALRLSNMAMGKTTTGQIVNLLSNDVNKFDQVTVFLHFLWAGPLQAIAVTALLWMEIGISCLAGMAVLIILLPLQSCFGKLFSSLRSKTATFTDARIRTMNEVITGIRIIKMYAWEKSFSNLITNLRKKEISKILRSSCLRGMNLASFFSASKIIVFVTFTTYVLLGSVITASRVFVAVTLYGAVRLTVTLFFPSAIERVSEAIVSIRRIQTFLLLDEISQRNRQLPSDGKKMVHVQDFTAFWDKASETPTLQGLSFTVRPGELLAVVGPVGAGKSSLLSAVLGELAPSHGLVSVHGRIAYVSQQPWVFSGTLRSNILFGKKYEKERYEKVIKACALKKDLQLLEDGDLTVIGDRGTTLSGGQKARVNLARAVYQDADIYLLDDPLSAVDAEVSRHLFELCICQILHEKITILVTHQLQYLKAASQILILKDGKMVQKGTYTEFLKSGIDFGSLLKKDNEESEQPPVPGTPTLRNRTFSESSVWSQQSSRPSLKDGALESQDTENVPVTLSEENRSEGKVGFQAYKNYFRAGAHWIVFIFLILLNTAAQVAYVLQDWWLSYWANKQSMLNVTVNGGGNVTEKLDLNWYLGIYSGLTVATVLFGIARSLLVFYVLVNSSQTLHNKMFESILKAPVLFFDRNPIGRILNRFSKDIGHLDDLLPLTFLDFIQTLLQVVGVVSVAVAVIPWIAIPLVPLGIIFIFLRRYFLETSRDVKRLESTTRSPVFSHLSSSLQGLWTIRAYKAEERCQELFDAHQDLHSEAWFLFLTTSRWFAVRLDAICAMFVIIVAFGSLILAKTLDAGQVGLALSYALTLMGMFQWCVRQSAEVENMMISVERVIEYTDLEKEAPWEYQKRPPPAWPHEGVIIFDNVNFMYSPGGPLVLKHLTALIKSQEKVGIVGRTGAGKSSLISALFRLSEPEGKIWIDKILTTEIGLHDLRKKMSIIPQEPVLFTGTMRKNLDPFNEHTDEELWNALQEVQLKETIEDLPGKMDTELAESGSNFSVGQRQLVCLARAILRKNQILIIDEATANVDPRTDELIQKKIREKFAHCTVLTIAHRLNTIIDSDKIMVLDSGRLKEYDEPYVLLQNKESLFYKMVQQLGKAEAAALTETAKQVYFKRNYPHIGHTDHMVTNTSNGQPSTLTIFETAL
As usually defined, the Km is the concentration of substrate that gives half-maximal velocity. On to B1, for which the Km turned out to be 640 µM in series [13] and 170 µM in [14].
